The CheMixHub viscosity set
Where “and” joins values, the source holds several entries; their conditions need not be identical. Equal entries are not always repeated. ± gives the uncertainty stated by the source.

Experiment: xn = mol fraction of the nth substance listed

ClCC(Cl)Cl + COc1ccccc1N
viscosity [mPa·s], 100 kPa
Settings	x2 = 0.0884	x2 = 0.1905	x2 = 0.2923	x2 = 0.4076	x2 = 0.5076	x2 = 0.5945	x2 = 0.7016	x2 = 0.8104	x2 = 0.9023
303.15 K	1.376 ± 0.043	1.786 ± 0.056	2.192 ± 0.068	2.647 ± 0.082	3.038 ± 0.094	3.376 ± 0.11	3.789 ± 0.12	4.204 ± 0.13	4.554 ± 0.14
308.15 K	1.291 ± 0.041	1.676 ± 0.052	2.055 ± 0.064	2.478 ± 0.077	2.841 ± 0.088	3.154 ± 0.098	3.535 ± 0.11	3.918 ± 0.12	4.236 ± 0.13
313.15 K	1.204 ± 0.038	1.566 ± 0.049	1.916 ± 0.06	2.307 ± 0.072	2.641 ± 0.082	2.929 ± 0.091	3.279 ± 0.1	3.629 ± 0.11	3.918 ± 0.12

C1CCC2=[NH+]CCCN2CC1.c1nc[n-]n1 + CS(C)=O
303.15 K, 100 kPa
Settings	viscosity [mPa·s]
x1 = 0.1001	3.86 ± 0.09
x1 = 0.2	7.19 ± 0.16
x1 = 0.2999	12.29 ± 0.28
x1 = 0.4003	22.17 ± 0.51
x1 = 0.4989	39.73 ± 0.95
x1 = 0.6002	77.3 ± 2.1
x1 = 0.7008	152.3 ± 6.6
x1 = 0.7993	309.9 ± 21
x1 = 0.9002	586.4 ± 53

CC(C)CO + CS(C)=O
viscosity [mPa·s], 101.3 kPa
Settings	x2 = 0.0944	x2 = 0.1917	x2 = 0.289	x2 = 0.3884	x2 = 0.4863	x2 = 0.5874	x2 = 0.6887	x2 = 0.7913	x2 = 0.8951
298.15 K	2.785 ± 0.12	2.366 ± 0.11	2.056 ± 0.094	1.934 ± 0.089	1.879 ± 0.087	1.853 ± 0.086	1.858 ± 0.086	1.891 ± 0.087	1.918 ± 0.089
303.15 K	2.424 ± 0.11	2.071 ± 0.095	1.847 ± 0.085	1.754 ± 0.082	1.703 ± 0.079	–	1.686 ± 0.079	1.693 ± 0.079	1.733 ± 0.081

O=C1OCCO1 + CS(C)=O
313.15 K, 101.33 kPa
Settings	viscosity [mPa·s]
x2 = 0.0721	1.862 ± 0.007
x2 = 0.1744	1.786 ± 0.007
x2 = 0.2849	1.709 ± 0.006
x2 = 0.3698	1.656 ± 0.006
x2 = 0.469	1.611 ± 0.006
x2 = 0.5668	1.571 ± 0.005
x2 = 0.6744	1.538 ± 0.005
x2 = 0.7969	1.515 ± 0.005
x2 = 0.8782	1.51 ± 0.005
x2 = 0.9732	1.511 ± 0.005

Cc1ccccc1O + C[N+](C)(C)CCO.[Cl-]
298.15 K, 101.33 kPa
Settings	viscosity
x1 = 0.7	137.1 ± 51 mPa·s
x1 = 0.8	73.25 ± 21 mPa·s and 56.18 ± 14 mPa·s and 47.22 ± 11 mPa·s
x1 = 0.9	38.19 ± 8.1 mPa·s

O=C(O)C(=O)O + C[N+](C)(C)CCO.[Cl-]
viscosity [mPa·s], x2 = 0.5
Settings	293.15 K	293.2 K	298.15 K	303.2 K	308.15 K	313.2 K	318.15 K
100 kPa	15680 ± 1300	–	8953 ± 680	–	3332 ± 220	–	1421 ± 82
101.3 kPa	–	7595 ± 1700	–	4359 ± 690	–	2174 ± 340	–

O=C(O)CO + C[N+](C)(C)CCO.[Cl-]
100 kPa, x2 = 0.5
Settings	viscosity [mPa·s]
293.15 K	779.4 ± 41
298.15 K	547.9 ± 28
303.15 K	394.8 ± 19
308.15 K	290.6 ± 13
313.15 K	218.6 ± 9.8
318.15 K	167 ± 7.2
323.15 K	130.1 ± 5.5

CC(C)CO + Cc1ccc(C)cc1
308.15 K, 101 kPa
Settings	viscosity [mPa·s]
x1 = 0.0452	0.549 ± 0.012
x1 = 0.1043	0.562 ± 0.012
x1 = 0.1908	0.595 ± 0.012
x1 = 0.3019	0.649 ± 0.014
x1 = 0.3823	0.697 ± 0.015
x1 = 0.4859	0.775 ± 0.016
x1 = 0.6097	0.969 ± 0.02
x1 = 0.7046	1.218 ± 0.025
x1 = 0.8071	1.487 ± 0.031
x1 = 0.8948	1.856 ± 0.039
x1 = 0.9585	2.247 ± 0.047

CCCCCOC(C)=O + Cc1ccc(O)cc1
Settings	viscosity [mPa·s]
298.15 K, 101 kPa, x2 = 0.5	1.169 ± 0.011

Cc1ccccc1O + Cc1ccc(O)cc1
viscosity [mPa·s]
Settings	298.15 K	313.15 K	323.15 K
101 kPa, x1 = 0.1547	13.27 ± 0.21	–	–
101 kPa, x1 = 0.2999	12 ± 0.18	–	–
101 kPa, x1 = 0.3525	11.63 ± 0.18	–	–
101 kPa, x1 = 0.4233	11.03 ± 0.17	–	–
101 kPa, x1 = 0.5256	10.3 ± 0.15	–	–
101 kPa, x1 = 0.6304	9.612 ± 0.14	–	–
101 kPa, x1 = 0.7573	8.854 ± 0.13	–	–
101 kPa, x1 = 0.875	8.209 ± 0.12	–	–
101.3 kPa, x1 = 0.1	–	6.38 ± 0.077	4.318 ± 0.053
101.3 kPa, x1 = 0.2	–	6.086 ± 0.073	4.147 ± 0.051
101.3 kPa, x1 = 0.3	–	5.766 ± 0.069	3.929 ± 0.048
101.3 kPa, x1 = 0.4	–	5.425 ± 0.065	3.727 ± 0.045
101.3 kPa, x1 = 0.5	–	5.125 ± 0.061	3.555 ± 0.043
101.3 kPa, x1 = 0.6	–	4.847 ± 0.057	3.401 ± 0.041
101.3 kPa, x1 = 0.7	–	4.616 ± 0.054	3.235 ± 0.039
101.3 kPa, x1 = 0.8	–	4.435 ± 0.052	3.112 ± 0.037
101.3 kPa, x1 = 0.9	–	4.3 ± 0.05	3.047 ± 0.036

CCCCCOC(C)=O + Cc1cccc(O)c1
Settings	viscosity [mPa·s]
298.15 K, 101 kPa, x2 = 0.5	1.167 ± 0.011

Cc1ccccc1O + Cc1cccc(O)c1
viscosity [mPa·s]
Settings	298.15 K	313.15 K	323.15 K
101 kPa, x1 = 0.1537	12.16 ± 0.19	–	–
101 kPa, x1 = 0.3061	11.09 ± 0.17	–	–
101 kPa, x1 = 0.3536	10.75 ± 0.16	–	–
101 kPa, x1 = 0.3954	10.5 ± 0.16	–	–
101 kPa, x1 = 0.506	9.939 ± 0.15	–	–
101 kPa, x1 = 0.6371	9.208 ± 0.13	–	–
101 kPa, x1 = 0.7608	8.582 ± 0.12	–	–
101 kPa, x1 = 0.8803	8.086 ± 0.12	–	–
101.3 kPa, x2 = 0.1	–	4.379 ± 0.051	3.086 ± 0.037
101.3 kPa, x2 = 0.2	–	4.539 ± 0.053	3.145 ± 0.037
101.3 kPa, x2 = 0.3	–	4.689 ± 0.055	3.235 ± 0.039
101.3 kPa, x2 = 0.4	–	4.861 ± 0.057	3.32 ± 0.04
101.3 kPa, x2 = 0.5	–	5.048 ± 0.06	3.417 ± 0.041
101.3 kPa, x2 = 0.6	–	5.248 ± 0.062	3.543 ± 0.043
101.3 kPa, x2 = 0.7	–	5.462 ± 0.065	3.666 ± 0.044
101.3 kPa, x2 = 0.8	–	5.693 ± 0.068	3.805 ± 0.046
101.3 kPa, x2 = 0.9	–	5.966 ± 0.071	3.949 ± 0.048
